Reference: patent US6818391B2, “Glutamate transporters” (The Regents of the University of California, priority 2000, dated 2004)

Legend:
[1] = biological target: T1, BNPI (VGLUT1) (Rattus norvegicus, UniProt Q62634); assay: 3H-glutamate uptake by membranes from PC12 cells expressing BNPI; format: biochemical; details: for inhibition of 3H-glutamate uptake by membranes expressing BNPI: 10 mM, uptake at 5 min
T1 construct: expressed in transfected cells; light membranes prepared from them
T1 sequence (Q62634 1-560): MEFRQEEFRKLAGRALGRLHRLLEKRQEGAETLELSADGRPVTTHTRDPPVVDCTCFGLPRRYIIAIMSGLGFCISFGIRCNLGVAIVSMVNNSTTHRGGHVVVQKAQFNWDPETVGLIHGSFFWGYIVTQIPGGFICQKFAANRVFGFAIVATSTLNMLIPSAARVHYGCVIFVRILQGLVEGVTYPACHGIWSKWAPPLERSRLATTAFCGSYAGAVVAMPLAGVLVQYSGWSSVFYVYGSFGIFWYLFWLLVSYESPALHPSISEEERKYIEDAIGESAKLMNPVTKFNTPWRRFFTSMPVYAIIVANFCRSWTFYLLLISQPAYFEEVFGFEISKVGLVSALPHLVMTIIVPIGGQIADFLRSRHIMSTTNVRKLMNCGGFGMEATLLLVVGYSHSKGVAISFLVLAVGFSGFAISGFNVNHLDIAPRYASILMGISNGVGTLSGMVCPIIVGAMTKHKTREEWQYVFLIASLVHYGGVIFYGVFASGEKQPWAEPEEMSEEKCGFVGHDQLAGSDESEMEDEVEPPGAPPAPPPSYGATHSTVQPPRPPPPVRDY
Text: Rather, the type I transporter NaPi-1 transports organic anions, including phenol red and penicillin G, with substantially higher apparent affinity than Pi (Busch et al. (1996) Proc. Natl. Acad. Sci., USA, 93: 5347). Human genetic studies have shown that mutations in another protein closely related to BNPI and NaPi-1 account for disorders of sialic acid storage (Verheijen et al. (1999) Nature Genet. 23: 462). In these conditions, sialic acid accumulates in lysosomes because of a defect in proton-driven export (Renlund et al. (1986) Science 232: 759; Mancini et al. (1989) J. Biol. Chem. 264: 15247; Tietze et al. (1989) J. Biol. Chem. 264: 15316; Mancini et al. (1992) Proc. Natl. Acad. Sci., USA, 89: 6609). […] To determine whether BNPI mediates the transport of glutamate into synaptic vesicles, we transfected the rat BNPI cDNA into rat pheochromocytoma PC12 cells, which lack detectable endogenous BNPI protein. The rat BNPI cDNA was stably expressed in PC12 cells, and immunofluorescence for BNPI was used to identify the most highly expressing cell clones. Membranes were prepared by homogenizing the washed cells in SH buffer [0.32 M sucrose and 10 mM Hepes-KOH (pH 7.4)] containing protease inhibitors and by pelleting the nuclei at 1000 g for 5 min and the heavier membranes at 27,000 g for 35 min. The supernatant containing lighter membranes was then pelleted at 210,000 g for 1 hour and resuspended in SH buffer with protease inhibitors at a final concentration of ˜10 μg protein/μl.
We then prepared a population of light membranes, including synaptic-like microvesicles, from the transfected and untransfected cells (McIntire et al. (1997) Nature 389: 870) and tested their ability to accumulate 3H-glutamate in the presence of 4 mM chloride and ATP, conditions that optimize glutamate accumulation by native synaptic vesicles (Maycox et al. (1988) J. Biol. Chem., 263: 15423; Carlson et al. […] J. Biol. Chem. 264: 7369). To initiate the transport reaction, we added 10 μl of membranes to 190 μl of SH buffer containing 4 mM KCl, 4 mM MgSO4, 4 mM ATP, and 50 μM 3H-glutamate, with other additions noted in the text and figure legends. The reaction mixture was incubated at 29° C. for varying times, and the uptake was terminated by rapid filtration, followed by immediate washes with 6 ml of cold 0.155 M potassium tartrate and 10 mM Hepes (pH 7.4). Background uptake was determined using membranes prepared from untransfected cells that were incubated for the same amount of time at the same temperature. Transport measurements were performed in duplicate with at least two different preparations of membranes. The Km was calculated by averaging the results of two separate determinations.

[2] = tested on: untransfected PC12 cell membranes; assay: background 3H-glutamate uptake by membranes from untransfected PC12 cells; format: biochemical, rat; details: uptake at 5 min
Procedure: To initiate the transport reaction, we added 10 μl of membranes to 190 μl of SH buffer containing 4 mM KCl, 4 mM MgSO4, 4 mM ATP, and 50 μM 3H-glutamate, with other additions noted in the text and figure legends. […] Background uptake was determined using membranes prepared from untransfected cells that were incubated for the same amount of time at the same temperature. Transport measurements were performed in duplicate with at least two different preparations of membranes. The Km was calculated by averaging the results of two separate determinations.

[3] = tested on: synaptic vesicles; details: read-out: Km of vesicular glutamate transport; cited from earlier work
[4] = tested on: untransfected PC12 cell membranes; assay: acridine orange fluorescence quenching of untransfected cell membranes; format: biochemical, rat; details: 10 mM glutamate
Procedure: Native synaptic vesicles acidify during glutamate uptake (Maycox et al. (1988) J. Biol. Chem., 263: 15423). Glutamate presumably serves as a counterion for protons and dissipates ΔΨ, enabling the vacuolar H+-ATPase to generate a larger ΔpH, but cotransport of H+ with glutamate remains an alternative possibility. To determine whether acidification also accompanies glutamate transport by BNPI, we used the quenching of acridine orange fluorescence to measure vesicle pH. Membranes (200 μg of protein) were diluted into 2 ml of 0.3 M sucrose and 10 mM tris-Mops (pH 7.4) containing 4 mM MgSO4 and 5 μM acridine orange and incubated at 37° C. with continuous stirring. Fluorescence was monitored with a Hitachi F4500 spectrofluorimeter at an excitation wavelength of 492 nm and emission of 530 nm. Separate measurements were made with at least three different membrane preparations for wild-type and transfected cells; representative tracings are shown in FIG. 5.

Compound | 3H-glutamate uptake by BNPI at non-optimal chloride ([1]; 0 and 25 mM chloride) | effect on background glutamate uptake by untransfected cell membranes [2] | inhibition of 3H-glutamate uptake by membranes expressing BNPI [1] | inhibition of 3H-glutamate uptake by membranes expressing BNPI ([1]; listed as L-glutamate) | Km ([1]; initial rate at 1 min, Lineweaver-Burke, untransfected background subtracted, read-out: Km of glutamate transport by BNPI) [mM] | Km [3] [mM] | effect on acidification produced by chloride in nontransfected cell membranes [4]
Cl [chloride] | much less activity detected |  |  |  |  |  | 
N[C@@H](CCC(=O)O)C(=O)O [L-Glutamate] |  | had little effect | markedly inhibits | inhibited the uptake | ~2 | ~1 | had no effect
